Our source for the relative viability values is the supplement of paper PMC10307832.

Holding throughout (experiment): relative viability (nuclei count vs DMSO), 5 days (fraction); higher = more cells survive
Compound in the experiment “Shikonin + Lapatinib”: CC(C)=CC[C@@H](O)C1=CC(=O)c2c(O)ccc(O)c2C1=O [Shikonin] + CS(=O)(=O)CCNCc1ccc(-c2ccc3ncnc(Nc4ccc(OCc5cccc(F)c5)c(Cl)c4)c3c2)o1 [Lapatinib] (partner 2 µM)
The gist of the method:
(§1)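 One day after seeding in 1536-well plates, lung cancer cell lines were dosed by pin tool. Dosing was either single-drug or a fixed anchor-drug dose plus five library-drug doses (not always all listed) in √10 steps. After 5 days, nuclei were stained in one fix-and-stain step and counted on 4× images, and relative viability is the nuclei count of treated wells over that of vehicle wells, given as the median of duplicate plates.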

Compound in experiment [1]: CC(C)N(CCCNC(=O)Nc1ccc(C(C)(C)C)cc1)C[C@H]1O[C@@H](n2ccc3c(N)ncnc32)[C@H](O)[C@@H]1O + C[C@@H](Oc1cc(-c2cnn(C3CCNCC3)c2)cnc1N)c1c(Cl)ccc(F)c1Cl [Crizotinib] (partner 1 µM)
The method in brief: as §1

Compound in experiment [2]: CC(C)N(CCCNC(=O)Nc1ccc(C(C)(C)C)cc1)C[C@H]1O[C@@H](n2ccc3c(N)ncnc32)[C@H](O)[C@@H]1O + Nc1ncn([C@H]2C[C@H](O)[C@@H](CO)O2)c(=O)n1 [Decitabine] (partner 2 µM)
The gist of the method: as §1

Compound in experiment [3]: CC(C)N(CCCNC(=O)Nc1ccc(C(C)(C)C)cc1)C[C@H]1O[C@@H](n2ccc3c(N)ncnc32)[C@H](O)[C@@H]1O + O=C(c1cc(Cc2n[nH]c(=O)c3ccccc23)ccc1F)N1CCN(C(=O)C2CC2)CC1 [Olaparib] (partner 8 µM)
The method in brief: as §1

For NCI-H647, the relative viability with Shikonin + Lapatinib (first compound 0.01 µM) was 1.16; with Shikonin + Lapatinib (first compound 0.1 µM), 1.17; with Shikonin + Lapatinib (first compound 0.3162 µM), 1.35; with Shikonin + Lapatinib (first compound 1 µM), 0.88; in experiment [1] (first compound 0.08 µM), 1.01; in experiment [1] (first compound 0.8 µM), 1.05. Moreover, the relative viability was determined as 1.15 in experiment [1] (first compound 2.53 µM); 0.953 in experiment [1] (first compound 8 µM); 0.419 in experiment [2] (first compound 0.08 µM); 0.374 in experiment [2] (first compound 0.253 µM); 0.363 in experiment [2] (first compound 0.8 µM); 0.336 in experiment [2] (first compound 2.53 µM). The relative viability in experiment [2] (first compound 8 µM) came out at 0.392; in experiment [3] (first compound 0.08 µM), 0.439; in experiment [3] (first compound 0.253 µM), 0.507; in experiment [3] (first compound 0.8 µM) it was 0.508; in experiment [3] (first compound 2.53 µM) it was 0.587; in experiment [3] (first compound 8 µM), 0.543.

Turning to NCI-H650, the relative viability in the experiment with Shikonin + Lapatinib (first compound 0.01 µM) is 1.01; in the experiment with Shikonin + Lapatinib (first compound 0.3162 µM), 0.947; with Shikonin + Lapatinib (first compound 1 µM) it was 1.16; in experiment [1] (first compound 0.08 µM), 0.63; in experiment [1] (first compound 0.253 µM), 0.709; in experiment [1] (first compound 0.8 µM) it was 0.785. The relative viability in experiment [1] (first compound 2.53 µM) turned out to be 0.719; in experiment [1] (first compound 8 µM), 0.724; in experiment [2] (first compound 0.08 µM), 0.338; in experiment [2] (first compound 0.253 µM), 0.372; in experiment [2] (first compound 0.8 µM), 0.335; in experiment [2] (first compound 2.53 µM) it was 0.315. Moreover, the relative viability in experiment [2] (first compound 8 µM) came to 0.324; in experiment [3] (first compound 0.08 µM), 0.376; in experiment [3] (first compound 0.253 µM), 0.468; in experiment [3] (first compound 0.8 µM), 0.305; in experiment [3] (first compound 2.53 µM), 0.32; in experiment [3] (first compound 8 µM), 0.328.

In the case of NCI-H661, the relative viability with Shikonin + Lapatinib (first compound 0.01 µM) amounted to 0.575; in the experiment with Shikonin + Lapatinib (first compound 0.1 µM), 0.494; with Shikonin + Lapatinib (first compound 0.3162 µM), 0.501; with Shikonin + Lapatinib (first compound 1 µM), 0.594; in experiment [1] (first compound 0.08 µM), 1.05; in experiment [1] (first compound 0.253 µM), 1.15. For the same cell line, the relative viability in experiment [1] (first compound 0.8 µM) was found to be 1.13; in experiment [1] (first compound 2.53 µM) it was 1.08; in experiment [1] (first compound 8 µM), 0.978; in experiment [2] (first compound 0.08 µM), 0.521; in experiment [2] (first compound 0.253 µM), 0.469; in experiment [2] (first compound 0.8 µM), 0.542. Also, the relative viability in experiment [2] (first compound 2.53 µM) worked out at 0.577; in experiment [2] (first compound 8 µM) it was 0.623; in experiment [3] (first compound 0.08 µM) it was 0.85; in experiment [3] (first compound 0.253 µM), 0.758; in experiment [3] (first compound 0.8 µM) it was 0.795; in experiment [3] (first compound 2.53 µM) it was 0.786. For the same cell line, the relative viability in experiment [3] (first compound 8 µM) is 0.729.

Turning to NCI-H727, the relative viability turned out to be 0.923 with Shikonin + Lapatinib (first compound 0.01 µM); 0.96 with Shikonin + Lapatinib (first compound 0.1 µM); 0.745 in the experiment with Shikonin + Lapatinib (first compound 0.3162 µM); 0.604 in the experiment with Shikonin + Lapatinib (first compound 1 µM); 0.767 in experiment [1] (first compound 0.08 µM); 0.837 in experiment [1] (first compound 0.253 µM). Moreover, the relative viability worked out at 0.899 in experiment [1] (first compound 0.8 µM); 0.93 in experiment [1] (first compound 2.53 µM); 0.854 in experiment [1] (first compound 8 µM); 0.907 in experiment [2] (first compound 0.08 µM); 0.687 in experiment [2] (first compound 0.253 µM); 0.885 in experiment [2] (first compound 0.8 µM). In addition, the relative viability in experiment [2] (first compound 2.53 µM) was 0.905; in experiment [2] (first compound 8 µM), 0.973; in experiment [3] (first compound 0.08 µM), 0.587; in experiment [3] (first compound 0.253 µM) it was 0.676; in experiment [3] (first compound 0.8 µM), 0.673; in experiment [3] (first compound 2.53 µM) it was 0.759. Moreover, the relative viability in experiment [3] (first compound 8 µM) was 0.647.

NCI-H838: the relative viability with Shikonin + Lapatinib (first compound 0.01 µM) was 1.02; in the experiment with Shikonin + Lapatinib (first compound 0.1 µM) it was 1.03; with Shikonin + Lapatinib (first compound 0.3162 µM), 0.979; with Shikonin + Lapatinib (first compound 1 µM), 0.996; in experiment [1] (first compound 0.08 µM), 0.796; in experiment [1] (first compound 0.253 µM), 0.873. Also, the relative viability turned out to be 0.91 in experiment [1] (first compound 0.8 µM); 0.778 in experiment [1] (first compound 2.53 µM); 0.759 in experiment [1] (first compound 8 µM); 0.454 in experiment [2] (first compound 0.08 µM); 0.431 in experiment [2] (first compound 0.253 µM); 0.491 in experiment [2] (first compound 0.8 µM). Further, the relative viability in experiment [2] (first compound 2.53 µM) came out at 0.483; in experiment [2] (first compound 8 µM), 0.511; in experiment [3] (first compound 0.08 µM), 0.75; in experiment [3] (first compound 0.253 µM), 0.829; in experiment [3] (first compound 0.8 µM), 0.794; in experiment [3] (first compound 2.53 µM), 0.812. Besides, the relative viability in experiment [3] (first compound 8 µM) came out at 0.728.

As to NCI-H1355, the relative viability was found to be 1.07 in the experiment with Shikonin + Lapatinib (first compound 0.01 µM); 1.05 in the experiment with Shikonin + Lapatinib (first compound 0.1 µM); 1.07 with Shikonin + Lapatinib (first compound 0.3162 µM); 1.05 in the experiment with Shikonin + Lapatinib (first compound 1 µM); 1.01 in experiment [1] (first compound 0.08 µM); 1.08 in experiment [1] (first compound 0.253 µM). Moreover, the relative viability came out at 1.09 in experiment [1] (first compound 2.53 µM); 0.891 in experiment [1] (first compound 8 µM); 0.338 in experiment [2] (first compound 0.08 µM); 0.342 in experiment [2] (first compound 0.253 µM); 0.414 in experiment [2] (first compound 0.8 µM); 0.335 in experiment [2] (first compound 2.53 µM). The relative viability in experiment [2] (first compound 8 µM) amounted to 0.342; in experiment [3] (first compound 0.08 µM), 0.695; in experiment [3] (first compound 0.253 µM), 0.776; in experiment [3] (first compound 0.8 µM), 0.667; in experiment [3] (first compound 2.53 µM), 0.754; in experiment [3] (first compound 8 µM), 0.716.

On to NCI-H1437, for which the relative viability was 0.846 with Shikonin + Lapatinib (first compound 0.01 µM); 0.78 with Shikonin + Lapatinib (first compound 0.1 µM); 0.884 with Shikonin + Lapatinib (first compound 0.3162 µM); 0.848 with Shikonin + Lapatinib (first compound 1 µM); 0.924 in experiment [1] (first compound 0.08 µM); 0.923 in experiment [1] (first compound 0.253 µM). For the same cell line, the relative viability in experiment [1] (first compound 0.8 µM) came to 0.962; in experiment [1] (first compound 2.53 µM) it was 0.899; in experiment [1] (first compound 8 µM), 0.898; in experiment [2] (first compound 0.08 µM), 0.563; in experiment [2] (first compound 0.253 µM), 0.569; in experiment [2] (first compound 0.8 µM), 0.619. For the same cell line, the relative viability came out at 0.553 in experiment [2] (first compound 2.53 µM); 0.592 in experiment [2] (first compound 8 µM); 0.604 in experiment [3] (first compound 0.08 µM); 0.642 in experiment [3] (first compound 0.253 µM); 0.624 in experiment [3] (first compound 0.8 µM); 0.592 in experiment [3] (first compound 2.53 µM). In addition, the relative viability in experiment [3] (first compound 8 µM) is 0.561.
